{
  "source": "patent US5412125A",
  "about": "“Dipeptidic amides derived from glycyl-serine as surfactants or hydrating agents and cosmetic, pharmaceutical or alimentary compositions containing the same” (L'Oreal, priority 1991, dated 1995)",
  "assay": "Foaming power study (brush-developed foam in graduated cylinder)",
  "type": "physicochemical",
  "conditions": "5% aqueous solution (weight/volume), 5 ml with 6 mg natural feminine sebum; after 180 sec stirring",
  "method": "The test consists in developing the foam using a brush made of natural hog bristles (length=[…]) displaced in a plexiglass graduated cylindrical container (inside diameter=35 mm). This container is driven in a uniform circular motion which is the reverse of that described by the brush. This permits a good distribution of the foam in the graduated container despite the small amounts developed. (brush speed=100 rpm, container speed=10 rpm). The procedure is carried out using 5 ml of each solution studied to which has been added 6 mg of natural feminine sebum. The foam heights are recorded after one, two and three minutes of stirring.",
  "note": "Where a SMILES comes first, the peptide text is derived from it. The star is where a group is joined. Lauroyl = CCCCCCCCCCCC(=O)*",
  "data": [
    {"compound": "CCCCCCCCCCCC(=O)NCC(=O)NCC(=O)[O-].[Na+]", "note": "[compound A, sodium salt of N-dodecanoyl-glycyl-glycine] (Lauroyl-Gly-Gly-OH)", "values": [
      {"measurement": "Foam Height (cm) at the end of a time of 180 sec", "result": 20, "unit": "cm"}
    ]}
  ]
}
